Test [1] has as its system B16-F10. Put plainly: Antitumor activity against mouse B16F10 cells allografted in NCr nu/nu mouse assessed as inhibition of tumor angiogenesis at 35 mg/kg, ip administered three times weekly for 2 weeks.
In test [2] the test system is B16-F10. As to the kind of experiment: Antitumor activity against mouse B16F10 cells allografted in NCr nu/nu mouse assessed as decrease in tumor metastasis at 35 mg/kg, ip administered three times weekly for 2 weeks.
The test system of test [3] is B16-F10. As to the kind of experiment: Antitumor activity against mouse B16F10 cells allografted in NCr nu/nu mouse assessed as tumor growth reduction at 35 mg/kg, ip administered three times weekly for 2 weeks.
A short description of test [4]: Antiangiogenic activity in VEGF/bFGF-stimulated chicken embryo after 48 hrs by CAM assay. Type of test: functional, Gallus gallus.
In test [5] the target is Vascular endothelial growth factor receptor 2 (Homo sapiens, UniProt P35968). Type of test: cell-based, U-251.
Chain of Vascular endothelial growth factor receptor 2 (P35968 whole entry): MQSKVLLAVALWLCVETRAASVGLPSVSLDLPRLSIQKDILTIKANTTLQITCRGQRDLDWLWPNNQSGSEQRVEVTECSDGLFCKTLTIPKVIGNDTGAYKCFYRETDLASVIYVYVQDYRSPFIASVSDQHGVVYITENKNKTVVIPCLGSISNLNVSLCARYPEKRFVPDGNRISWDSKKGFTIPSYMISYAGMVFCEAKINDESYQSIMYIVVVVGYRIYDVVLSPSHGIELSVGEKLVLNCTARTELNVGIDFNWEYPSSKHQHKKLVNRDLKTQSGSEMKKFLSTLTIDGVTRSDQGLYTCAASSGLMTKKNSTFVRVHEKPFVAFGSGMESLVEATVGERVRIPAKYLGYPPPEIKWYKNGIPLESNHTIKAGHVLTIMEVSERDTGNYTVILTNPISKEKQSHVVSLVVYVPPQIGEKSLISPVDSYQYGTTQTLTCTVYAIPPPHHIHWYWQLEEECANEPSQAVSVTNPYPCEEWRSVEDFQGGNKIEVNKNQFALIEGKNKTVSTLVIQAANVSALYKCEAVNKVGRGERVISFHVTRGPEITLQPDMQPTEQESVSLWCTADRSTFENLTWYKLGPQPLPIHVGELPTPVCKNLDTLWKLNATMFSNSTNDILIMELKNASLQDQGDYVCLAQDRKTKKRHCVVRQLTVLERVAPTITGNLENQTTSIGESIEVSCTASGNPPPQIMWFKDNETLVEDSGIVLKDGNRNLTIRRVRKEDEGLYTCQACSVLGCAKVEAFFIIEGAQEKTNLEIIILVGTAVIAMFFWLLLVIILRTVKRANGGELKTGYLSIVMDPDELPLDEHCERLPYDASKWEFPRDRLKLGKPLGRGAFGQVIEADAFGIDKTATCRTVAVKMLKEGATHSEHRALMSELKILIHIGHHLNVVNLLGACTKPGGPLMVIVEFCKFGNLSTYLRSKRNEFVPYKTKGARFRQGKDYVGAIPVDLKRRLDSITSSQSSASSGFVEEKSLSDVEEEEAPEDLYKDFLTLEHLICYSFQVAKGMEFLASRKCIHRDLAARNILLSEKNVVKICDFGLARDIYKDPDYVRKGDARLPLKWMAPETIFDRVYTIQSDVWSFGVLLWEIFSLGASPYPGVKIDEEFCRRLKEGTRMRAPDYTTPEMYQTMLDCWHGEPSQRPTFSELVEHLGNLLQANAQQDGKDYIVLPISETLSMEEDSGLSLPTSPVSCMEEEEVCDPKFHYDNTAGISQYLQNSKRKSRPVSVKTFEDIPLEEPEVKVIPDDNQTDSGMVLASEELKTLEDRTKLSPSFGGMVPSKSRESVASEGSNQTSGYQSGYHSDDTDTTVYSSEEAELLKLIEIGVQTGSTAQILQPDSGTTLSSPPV
The test system of another test is A-431. As to the kind of experiment: Antiproliferative activity against human A431 cells after 48 hrs by CYQUANT assay. The note with it: A-431, 48 h. Type of test: functional, cell-based.
The target of test [6] is Platelet-derived growth factor receptor beta (Homo sapiens, UniProt P09619). Put plainly: Inhibition of PDGFRbeta in human SF539 cells pretreated for 60 mins measured after 10 mins by ELISA.
Chain of Platelet-derived growth factor receptor beta (P09619 whole entry): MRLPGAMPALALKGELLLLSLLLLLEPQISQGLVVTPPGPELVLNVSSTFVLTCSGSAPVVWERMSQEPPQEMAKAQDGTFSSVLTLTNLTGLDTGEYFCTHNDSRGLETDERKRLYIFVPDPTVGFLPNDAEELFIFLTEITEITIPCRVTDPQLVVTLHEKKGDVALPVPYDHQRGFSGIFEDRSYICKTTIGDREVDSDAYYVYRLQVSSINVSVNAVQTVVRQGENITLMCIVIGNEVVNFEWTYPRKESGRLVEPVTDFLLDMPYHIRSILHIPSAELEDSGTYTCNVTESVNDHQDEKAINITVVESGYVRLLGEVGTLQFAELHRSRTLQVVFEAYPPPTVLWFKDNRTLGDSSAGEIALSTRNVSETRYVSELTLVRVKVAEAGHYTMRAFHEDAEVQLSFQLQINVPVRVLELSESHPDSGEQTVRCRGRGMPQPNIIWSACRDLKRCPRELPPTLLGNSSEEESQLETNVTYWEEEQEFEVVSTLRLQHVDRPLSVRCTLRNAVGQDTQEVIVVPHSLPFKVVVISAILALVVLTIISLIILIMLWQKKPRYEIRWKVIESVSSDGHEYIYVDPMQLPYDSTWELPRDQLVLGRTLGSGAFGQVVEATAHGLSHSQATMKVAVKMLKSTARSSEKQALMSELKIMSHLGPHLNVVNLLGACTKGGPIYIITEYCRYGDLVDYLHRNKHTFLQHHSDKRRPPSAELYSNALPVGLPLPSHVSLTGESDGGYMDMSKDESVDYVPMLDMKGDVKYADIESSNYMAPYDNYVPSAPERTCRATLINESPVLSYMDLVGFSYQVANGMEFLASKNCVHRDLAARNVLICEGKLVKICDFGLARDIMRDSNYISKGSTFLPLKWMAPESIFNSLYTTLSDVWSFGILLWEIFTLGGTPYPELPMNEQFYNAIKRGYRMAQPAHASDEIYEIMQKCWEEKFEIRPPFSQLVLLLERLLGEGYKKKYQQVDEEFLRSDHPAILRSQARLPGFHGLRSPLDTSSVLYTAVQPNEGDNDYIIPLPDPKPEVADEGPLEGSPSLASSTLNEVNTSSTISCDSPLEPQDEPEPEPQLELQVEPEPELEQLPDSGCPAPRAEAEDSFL
Test [7] has as its target Epidermal growth factor receptor (Homo sapiens, UniProt P00533). It counts as cell-based, A-431.
In test [8] the target is Dihydroorotate dehydrogenase (quinone), mitochondrial (Homo sapiens, UniProt Q02127). As to the kind of experiment: Inhibition of human DHODH.
Chain of Dihydroorotate dehydrogenase (quinone), mitochondrial (Q02127 whole entry): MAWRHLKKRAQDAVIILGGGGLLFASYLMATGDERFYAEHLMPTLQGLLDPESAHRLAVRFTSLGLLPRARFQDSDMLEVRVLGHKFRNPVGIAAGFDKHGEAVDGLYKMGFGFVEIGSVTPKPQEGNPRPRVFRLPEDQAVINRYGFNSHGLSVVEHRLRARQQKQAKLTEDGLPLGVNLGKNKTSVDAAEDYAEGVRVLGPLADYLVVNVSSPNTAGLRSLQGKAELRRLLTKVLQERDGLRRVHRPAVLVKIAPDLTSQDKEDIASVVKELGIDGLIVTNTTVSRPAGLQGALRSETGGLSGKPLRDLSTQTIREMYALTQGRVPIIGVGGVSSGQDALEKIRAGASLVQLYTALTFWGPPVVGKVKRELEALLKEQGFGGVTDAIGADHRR
The target in test [9] is T1, Dihydroorotate dehydrogenase (Plasmodium falciparum, UniProt Q54A96).
T1 sequence (Q54A96 whole entry): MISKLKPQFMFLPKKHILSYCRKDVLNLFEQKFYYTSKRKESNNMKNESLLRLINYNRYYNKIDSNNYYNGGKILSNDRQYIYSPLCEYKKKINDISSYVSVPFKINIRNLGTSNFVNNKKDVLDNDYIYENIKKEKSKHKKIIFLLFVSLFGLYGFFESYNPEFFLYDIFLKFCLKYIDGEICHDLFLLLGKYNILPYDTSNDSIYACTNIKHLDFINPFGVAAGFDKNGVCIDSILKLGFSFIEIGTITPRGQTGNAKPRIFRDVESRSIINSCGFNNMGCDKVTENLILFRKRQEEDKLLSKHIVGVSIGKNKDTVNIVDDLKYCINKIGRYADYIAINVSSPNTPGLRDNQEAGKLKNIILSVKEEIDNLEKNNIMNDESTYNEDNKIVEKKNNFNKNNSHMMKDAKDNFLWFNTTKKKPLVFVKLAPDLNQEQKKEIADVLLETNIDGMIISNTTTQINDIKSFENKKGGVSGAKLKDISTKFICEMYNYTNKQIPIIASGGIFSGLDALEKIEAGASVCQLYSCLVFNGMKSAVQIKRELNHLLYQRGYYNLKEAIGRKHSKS
Put plainly: Inhibition of Plasmodium falciparum DHODH.

Another test deals with T2, Dihydrofolate reductase (Homo sapiens, UniProt P00374).
T2 sequence (P00374 whole entry): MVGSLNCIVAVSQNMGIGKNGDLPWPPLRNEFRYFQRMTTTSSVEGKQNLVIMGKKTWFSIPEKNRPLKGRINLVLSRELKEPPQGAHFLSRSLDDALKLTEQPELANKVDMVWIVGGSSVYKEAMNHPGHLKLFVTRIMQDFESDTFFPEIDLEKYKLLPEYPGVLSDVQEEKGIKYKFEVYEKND

The nature of test [10]: Inhibition of Escherichia coli thymidylate synthase.
For another test, the target named is Thymidylate synthase (Homo sapiens, UniProt P04818). As to the kind of experiment: Inhibition of human thymidylate synthase.
Chain of Thymidylate synthase (P04818 whole entry): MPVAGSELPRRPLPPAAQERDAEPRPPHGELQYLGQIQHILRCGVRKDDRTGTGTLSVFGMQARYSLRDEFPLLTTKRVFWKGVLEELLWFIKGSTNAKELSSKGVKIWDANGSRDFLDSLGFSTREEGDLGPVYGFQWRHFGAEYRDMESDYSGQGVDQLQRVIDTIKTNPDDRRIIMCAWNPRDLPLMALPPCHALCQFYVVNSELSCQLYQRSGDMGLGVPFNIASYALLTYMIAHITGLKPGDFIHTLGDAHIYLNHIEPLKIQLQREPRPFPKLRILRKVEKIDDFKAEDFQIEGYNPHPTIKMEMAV
Test [11] deals with T3, Bifunctional dihydrofolate reductase-thymidylate synthase (Toxoplasma gondii, UniProt Q07422).
T3 sequence (Q07422 whole entry): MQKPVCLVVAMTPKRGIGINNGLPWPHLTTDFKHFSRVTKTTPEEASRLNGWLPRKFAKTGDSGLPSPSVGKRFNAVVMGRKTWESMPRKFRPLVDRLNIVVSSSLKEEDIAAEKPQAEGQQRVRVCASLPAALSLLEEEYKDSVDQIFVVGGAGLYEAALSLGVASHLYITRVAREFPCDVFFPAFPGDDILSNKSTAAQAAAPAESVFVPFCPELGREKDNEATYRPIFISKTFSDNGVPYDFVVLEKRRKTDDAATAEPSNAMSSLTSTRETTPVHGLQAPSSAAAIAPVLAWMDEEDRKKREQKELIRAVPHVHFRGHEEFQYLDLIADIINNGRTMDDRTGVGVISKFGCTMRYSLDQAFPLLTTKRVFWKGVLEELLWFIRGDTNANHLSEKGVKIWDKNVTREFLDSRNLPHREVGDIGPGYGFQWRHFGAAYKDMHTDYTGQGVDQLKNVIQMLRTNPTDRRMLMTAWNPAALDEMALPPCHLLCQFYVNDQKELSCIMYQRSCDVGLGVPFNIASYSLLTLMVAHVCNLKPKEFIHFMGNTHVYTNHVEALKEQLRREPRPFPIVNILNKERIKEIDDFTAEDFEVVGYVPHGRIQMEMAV
Put plainly: Inhibition of Toxoplasma gondii DHFR.

The target in test [12] is T3, Bifunctional dihydrofolate reductase-thymidylate synthase. As to the kind of experiment: Inhibition of Toxoplasma gondii thymidylate synthase.

Here are results for 13 compounds from ChEMBL document CHEMBL2046359, “Novel tricyclic indeno[2,1-d]pyrimidines with dual antiangiogenic and cytotoxic activities as potent antitumor agents” (Bioorg Med Chem, 2012).

The source made the active and inactive calls. No cut-off for these calls is given here.

Chain of Epidermal growth factor receptor (P00533 whole entry): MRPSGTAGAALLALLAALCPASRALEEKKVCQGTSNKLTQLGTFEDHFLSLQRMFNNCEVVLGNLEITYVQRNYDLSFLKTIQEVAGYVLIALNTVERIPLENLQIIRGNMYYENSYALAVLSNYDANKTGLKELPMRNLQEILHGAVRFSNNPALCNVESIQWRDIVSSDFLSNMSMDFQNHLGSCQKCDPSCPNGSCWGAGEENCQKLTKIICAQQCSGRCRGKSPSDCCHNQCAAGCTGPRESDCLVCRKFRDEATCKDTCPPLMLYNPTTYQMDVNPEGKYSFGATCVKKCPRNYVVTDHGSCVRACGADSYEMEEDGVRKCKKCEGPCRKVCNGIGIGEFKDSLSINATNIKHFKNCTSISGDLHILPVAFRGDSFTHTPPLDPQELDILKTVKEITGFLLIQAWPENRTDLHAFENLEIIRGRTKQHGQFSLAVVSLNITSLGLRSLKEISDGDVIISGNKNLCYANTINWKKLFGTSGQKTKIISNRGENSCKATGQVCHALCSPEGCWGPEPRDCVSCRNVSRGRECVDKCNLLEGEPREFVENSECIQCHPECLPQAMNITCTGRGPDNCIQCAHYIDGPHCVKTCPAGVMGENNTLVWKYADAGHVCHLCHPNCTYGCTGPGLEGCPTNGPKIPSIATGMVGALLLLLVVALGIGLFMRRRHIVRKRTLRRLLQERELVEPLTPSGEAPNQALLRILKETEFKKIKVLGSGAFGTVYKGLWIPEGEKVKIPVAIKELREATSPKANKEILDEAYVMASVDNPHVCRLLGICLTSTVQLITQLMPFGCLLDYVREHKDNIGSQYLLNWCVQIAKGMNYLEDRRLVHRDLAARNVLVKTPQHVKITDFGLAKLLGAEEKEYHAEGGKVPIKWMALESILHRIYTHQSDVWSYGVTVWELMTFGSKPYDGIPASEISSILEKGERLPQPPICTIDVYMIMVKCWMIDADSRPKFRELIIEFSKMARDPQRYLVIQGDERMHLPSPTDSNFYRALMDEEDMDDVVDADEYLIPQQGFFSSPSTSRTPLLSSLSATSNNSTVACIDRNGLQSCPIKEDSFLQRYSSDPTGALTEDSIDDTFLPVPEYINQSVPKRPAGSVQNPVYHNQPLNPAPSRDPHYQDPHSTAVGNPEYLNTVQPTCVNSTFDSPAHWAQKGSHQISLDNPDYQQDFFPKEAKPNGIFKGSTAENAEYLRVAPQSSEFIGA

Take `Cc1[nH]c(/C=C2\C(=O)Nc3ccccc32)c(C)c1CCC(=O)O`: the result in the test on B16-F10 [1] and in the test with B16-F10 [2] was Active. Further, the “growth inhibition (GI)” value with B16-F10 [3] was “Active”.

On to `Nc1nc2c(c(Nc3ccc(Br)cc3)n1)-c1ccccc1C2`, for which the IC50 in test [4] is 19.1 µM; in test [5], 30.1 µM; in the test with A-431, 103 µM; in test [6], 38.9 µM.

As to `Nc1nc2c(c(Nc3ccc(C(F)(F)F)cc3)n1)-c1ccccc1C2`, the IC50 in [4] was 8.1 µM; in [7], more than 300 µM; in [5] it was more than 200 µM; with A-431 it was 306 µM; in test [6] it was 23.1 µM.

As for `Nc1nc2c(c(Nc3cccc(F)c3)n1)-c1ccccc1C2`, the half-inhibitory concentration (IC50) in test [7] was more than 300 µM; in test [8] it was more than 200 µM; in test [9], more than 200 µM; with A-431, 9.8 µM.

Regarding `Nc1nc2c(c(Nc3ccccc3)n1)-c1ccccc1C2`, the IC50 was more than 200 µM in test [7], more than 200 µM in [8], more than 200 µM in test [9] and 4.9 µM in the test with A-431.

`Nc1nc2c(c(Nc3cccc(Cl)c3)n1)-c1ccccc1C2`: the IC50 in the test with A-431 is 235 µM; in [6] it was more than 500 µM.

For `Nc1nc2c(c(Nc3cccc(Br)c3)n1)-c1ccccc1C2`, the IC50 is more than 14 µM against Dihydrofolate reductase; more than 200 µM in test [8]; more than 12 µM in test [10]; more than 200 µM in test [5]; more than 200 µM in test [9]; more than 500 µM in the test with A-431. In addition, the figures for the IC50 (against Thymidylate synthase; in test [11]; in test [12]) were more than 12 µM, more than 14 µM and more than 12 µM, respectively.

As for `CC(C)c1ccc(Nc2nc(N)nc3c2-c2ccccc2C3)cc1`, the IC50 is more than 16 µM against Dihydrofolate reductase; more than 14 µM in test [10]; 126 µM with A-431; more than 14 µM against Thymidylate synthase; more than 16 µM in [11]; more than 14 µM in [12].

Consider `Nc1nc2c(c(Nc3ccc(F)c(Cl)c3)n1)-c1ccccc1C2`, for which the 50% inhibitory concentration (IC50) was more than 16 µM on Dihydrofolate reductase; more than 200 µM in test [7]; more than 13 µM in [10]; 158 µM in the test on A-431; more than 13 µM against Thymidylate synthase; more than 16 µM in test [11]. The concentration for half-maximal inhibition (IC50) in test [12] is more than 13 µM.

Turning to `Nc1nc2c(c(Nc3ccc(Cl)cc3F)n1)-c1ccccc1C2`, the IC50 at Dihydrofolate reductase is more than 16 µM; in test [8] it was more than 200 µM; in [10], more than 13 µM; in test [9], more than 200 µM; with A-431 it was 9.7 µM; at Thymidylate synthase it was more than 13 µM. Moreover, the IC50 in [11] was more than 16 µM; in [12] it was more than 13 µM.

For `COc1cccc(Nc2nc(N)nc3c2-c2ccccc2C3)c1`, the IC50 in test [7] was more than 200 µM; in test [8] it was more than 200 µM; in [9], more than 200 µM; in the test on A-431, 13.9 µM.

Turning to `CC(C)c1ccccc1Nc1nc(N)nc2c1-c1ccccc1C2`, the IC50 in [4] is 2.12 µM; in test [7], more than 200 µM; in test [5] it was more than 200 µM; with A-431, 126 µM.

For `Nc1nc2c(c(Nc3ccc(F)cc3)n1)-c1ccccc1C2`, the IC50 in test [4] was found to be 46.7 µM; in [7], 276 µM; in test [5], 89.3 µM; in the test with A-431 it was 50.3 µM; in [6], 5.9 µM.
